Results on 2 compounds are retold here after US6914160B1, “Oxytocin inhibitors” (Pfizer Inc, priority 2002, dated 2005).

For the assay, the target named is T1, Oxytocin Receptor (Homo sapiens, UniProt P30559).
T1 construct: expressed in transfected cells; host or cells: CHO cells (membrane preparation)
T1 sequence (P30559 1-389): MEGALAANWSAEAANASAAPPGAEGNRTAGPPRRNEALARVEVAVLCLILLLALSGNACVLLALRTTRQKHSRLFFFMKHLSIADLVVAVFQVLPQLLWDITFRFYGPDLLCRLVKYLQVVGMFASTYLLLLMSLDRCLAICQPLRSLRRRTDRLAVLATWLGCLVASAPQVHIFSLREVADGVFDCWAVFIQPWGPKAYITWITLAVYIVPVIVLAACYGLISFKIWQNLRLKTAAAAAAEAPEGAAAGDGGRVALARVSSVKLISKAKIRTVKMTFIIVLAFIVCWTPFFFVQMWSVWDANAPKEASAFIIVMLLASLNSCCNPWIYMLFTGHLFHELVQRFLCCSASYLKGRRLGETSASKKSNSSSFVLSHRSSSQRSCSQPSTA
The assay is described as follows: Oxytocin Receptor Ligand Binding IC50 Assay (125I-OVTA SPA, CHO cell membranes). How it is done:
A. Oxytocin Receptor Ligand Binding IC50 Assay
• ii) Compound Dilution (Final concentration of 10 μM in the assay) • a) HTA stock compounds at 4 mM in 100% DMSO • b) Dilute compounds to 200 μM in dH2O. • c) Further dilute compounds to 100 μM in 100 mM Tris-HCl, pH 7.8, 20 mM MgCl2. This gives final concentrations of 2.5% DMSO, 50 mM Tris-HCl, pH 7.8, 10 mM MgCl2. • d) Using the diluted stock, prepare 1:2 dilutions over 10 points in 50 mM Tris-HCl, pH 7.8, 10 mM MgCl2, 2.5% DMSO with the TECAN Genesis. • e) Dispense 10 μl of the compound into a 384 well Optiplate according to the plate layout required for analysis by ECADA leaving space for the standard (arg^8)-vasotocin IC50. […] Protein concentrations are then measured and the membrane suspension is finally frozen in aliquots at a minimum of 5 mg/ml at −80° C. vi) Assay • Membranes are thawed on ice before diluting to 1 mg/ml in assay buffer. […] A 5 μl sample is then counted in duplicate using liquid scintillation counting (protocol 61 on Wallac Counter) and the concentration of the ligand is calculated (see example below). […] Using the measured concentration, the ^125I-OVTA is diluted to 0.3 nM in assay buffer. […]

By Ki is commonly meant the equilibrium dissociation constant of an inhibitor or competing ligand from its target. The low end stands for a stronger hold on the target, the high end for a looser hold on the target. `Cc1ccc(CN(C(=O)c2c(C)cc(C)nc2N)C(C(N)=O)c2ccc3c(c2)OCCO3)cc1` (centres unmarked) [Example 257, 2-Amino-N-[carbamoyl-(2,3-dihydro-benzo[1.4]dioxin-6-yl)-methyl]-4,6-dimethyl-N-(4-methyl-benzyl)-nicotinamide] yielded a Ki of 9.4 nM.

Take `COc1cccc(C(C(N)=O)N(Cc2ccc(C)cc2)C(=O)c2c(C)cc(C)nc2N)c1` (single isomer, unassigned) [Example 258, (R or S)-2-Amino-N-[carbamoyl-[(3-methoxyphenyl)-methyl]-4,6-dimethyl-N-(4-methyl-benzyl)-nicotinamide]: the Ki was found to be 9.4 nM.
